The subject of assay [1] is Wnt activity (SW480 colon carcinoma cells stably expressing the Sp5-Luc reporter gene). The assay is described as follows: Wnt activity screening assay (Sp5-Luc reporter gene assay). The format is cell-based, human. As to conditions: Homo sapiens, 36 to 48 hours. The source says: The screening assay for Wnt activity is described as follows. Reporter cell lines can be generated by stably transducing cancer cell lines (e.g., colon cancer) or primary cells (e.g., IEC-6 intestinal cells) with a lentiviral construct that includes a Wnt-responsive promoter driving expression of the firefly luciferase gene.
SW480 colon carcinoma cells were transduced with a lentiviral vector expressing luciferase with a human Sp5 promoter consisting of a sequence of eight TCF/LEF binding sites. SW480 cells stably expressing the Sp5-Luc reporter gene and a hygromycin resistance gene were selected by treatment with 150 μg/mL of hygromycin for 7 days. These stably transduced SW480 cells were expanded in cell culture and used for all further screening activities. […] For Sp5-Luc reporter gene assays, the cells were plated at 4,000 cells/well in 384-well plates with a DMEM medium containing 1% fetal bovine serum, and 1% Penicillin-Streptomycin and incubated for 36 to 48 hours at 37° C. and 5% CO2. Following incubation, 15 μl of BriteLite Plus luminescence reagent (Perkin Elmer) was added to each well of the 384-well assay plates. The plates were placed on an orbital shaker for 2 min and then luminescence was quantified using the Envision (Perkin Elmer) plate reader. Readings were normalized to DMSO only treated cells, and normalized activities were utilized for EC50 calculations using the dose-response log (inhibitor) vs. response-variable slope (four parameters) nonlinear regression feature available in GraphPad Prism 5.0 (or Dotmatics).
(A reporter such as luciferase makes a cellular process visible.)

Another assay has as its target recombinant GSK3β kinase (Homo sapiens (Human), UniProt P49841). The assay is described as follows: GSK3β kinase assay (Ser/Thr 09 peptide Z-lyte, FRET).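 Note: FRET read-out as coumarin over fluorescein emission ratio, compounds incubated one hour at room temperature, IC50 from dose-response curve fit.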 The assay is classed as biochemical.
For assay [2], the system named is SW480 colon carcinoma cells. The assay is described as follows: Cell viability assay (CellTiter-Glo). As to conditions: Homo sapiens, 96 h, four days, CellTiter-Glo. The assay is classed as cell-based, human. The procedure:
SW480 colon carcinoma cells were transduced with a lentiviral vector expressing luciferase with a human Sp5 promoter consisting of a sequence of eight TCF/LEF binding sites. SW480 cells stably expressing the Sp5-Luc reporter gene and a hygromycin resistance gene were selected by treatment with 150 μg/mL of hygromycin for 7 days. These stably transduced SW480 cells were expanded in cell culture and used for all further screening activities.
For the Cell Viability Assays, the cells were plated at 2,000 cells/well in 384-well plates with a DMEM medium containing 1% fetal bovine serum, and 1% Penicillin-Streptomycin and incubated for […] at 37° C. and 5% CO2. Eight replicates of DMSO-treated cells served as controls and cells treated with compound were performed in duplicate.
After incubation, 10 μL of CellTiter-Glo (Promega) was added to each well allowed to incubate for approximately 12 minutes. This reagent “results in cell lysis and generation of a luminescent signal proportional to the amount of ATP present. The amount of ATP is directly proportional to the number of cells present in culture, in agreement with previous reports. The CellTiter-Glo Assay generates a “glow-type” luminescent signal, produced by the luciferase reaction (Promega.com)”.
On the technique in general: Cellular ATP, detected with luciferase, serves as a proxy for viable cell number.

Assay [3] concerns IL-6 in human peripheral blood mononuclear cells (huPBMCs). In words: IL-6 inhibition in LPS-stimulated human peripheral blood mononuclear cells (HTRF). The format is cell-based. Conditions: Homo sapiens, PBMC; for EC50: LPS 50 ng/mL, 22 hours, IL-6 HTRF. The procedure:
Human Peripheral Blood Mononuclear Cells:
Fresh Normal PB MNC (Catalog # PB001, AllCells, Alameda, Calif.) were shipped overnight at 4° C. and resuspended in Roswell Park Memorial Institute (RPMI) 1640 Medium, with GlutaMAX Supplement (Catalog #61870127, ThermoFisher Scientific, Waltham, Mass.) supplemented with 1% Penicillin-Streptomycin (Catalog #15140163, ThermoFisher Scientific, Waltham, Mass.) and 1% fetal bovine serum (FBS) (Catalog #16140089, ThermoFisher Scientific, Waltham, Mass.) assay media.
Fresh normal human peripheral blood mononuclear cells (huPBMCs) were resuspended in 1% FBS-RPMI assay media with 1% Penicillin-Streptomycin 1% to a cell concentration of 1×10e6 cells/mL. […] 50 ng/mL of Lipopolysaccharides from Escherichia coli 0111:B4 (Catalog # L5293-2ML, Sigma-Aldrich, St. Louis, Mo.) was added after 2 hours and cells were incubated for another 22 hours at 37° C.-5% CO2. After 22 hour incubation, a mixture of anti-IL6 XL665 and anti-IL-6 Cryptate diluted in reconstitution buffer (Catalog #62IL6PEC, Cisbio Inc., Bedford, Mass.) was added to each well. Following incubation for 3 hours at room temperature, Homogeneous Time-Resolved Fluorescence (HTRF) was measured using the Envision (Perkin Elmer, Shelton, Conn.) at 665 nm and […]. The ratio of fluorescence at 665 nm to 620 nm was used as a readout for IL-6 quantification. All samples were processed in duplicate. Readings were normalized to DMSO treated cells and normalized activities were utilized for EC50 calculations. EC50 was determined using software generated by Dotmatics Limited (Windhill Bishops Stortford Herts, UK) using the Levenberg-Marquardt 4 parameter fitting procedure with finite different gradients.

Assay [4] concerns the target recombinant DYRK1A kinase (Homo sapiens (Human), UniProt Q13627). The assay is described as follows: DYRK1A kinase assay (Ser/Thr 18 peptide Z-lyte, FRET).
Assay [5] concerns LL29 cells (primary human fibroblasts derived from IPF patients), α-smooth muscle actin. In words: Inhibition of fibrotic process: TGF-β1-treated primary human fibroblasts, αSMA staining.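 For all read-outs here: controls were TGF-β1-stimulated wells with DMSO vehicle as the positive reference and cells given DMSO alone as the negative reference.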 Conditions: Homo sapiens, Fibroblast; for EC50: 96 h, TGF-β1 20 ng/mL, 4 days, % cells positive for αSMA. The format is cell-based.
Setting [6] is: GSK3β kinase, head says EC50, method says IC50, ATP 46 μM.
Setting [7] is: DYRK1A kinase, head says EC50, method says IC50, ATP 30 μM.

A word on the EC50: it is the concentration needed to bring the measured effect to its halfway point. Broadly, the inhibition is the relative decrease from the control value, in per cent.

SMILES strings stand for the structures. Like-named read-outs stand apart in the source and are kept apart here.

Chain of recombinant GSK3β kinase (P49841 whole entry): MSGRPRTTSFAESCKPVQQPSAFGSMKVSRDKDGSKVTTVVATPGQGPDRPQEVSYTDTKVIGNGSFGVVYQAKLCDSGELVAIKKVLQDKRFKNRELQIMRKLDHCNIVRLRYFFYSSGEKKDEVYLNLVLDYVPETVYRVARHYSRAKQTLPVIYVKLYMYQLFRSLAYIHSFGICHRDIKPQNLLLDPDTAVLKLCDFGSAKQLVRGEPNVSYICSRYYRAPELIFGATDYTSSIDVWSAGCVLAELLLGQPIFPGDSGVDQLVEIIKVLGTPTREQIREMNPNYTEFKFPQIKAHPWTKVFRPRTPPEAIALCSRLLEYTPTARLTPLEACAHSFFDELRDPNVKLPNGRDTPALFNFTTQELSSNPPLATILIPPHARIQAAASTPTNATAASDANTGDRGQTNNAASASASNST

`Nc1cncc(-c2ccc3cnc(NC(=O)c4ccc(F)cc4)cc3c2)c1` [Compound 36, N-(6-(5-Aminopyridin-3-yl)isoquinolin-3-yl)-4-fluorobenzamide]: the half-maximal effective concentration (EC50) in assay [1] was 379 nM; at recombinant GSK3β kinase (setting [6]), 8.86 µM; in assay [2] it was 493 nM; in assay [3] it was 1220 nM; in assay [4] (setting [7]), 2 nM; in assay [5], 292 nM.

Turning to `Nc1cncc(-c2ccc3cnc(NC(=O)c4ccc(OC5CCNCC5)cc4)cc3c2)c1` [Compound 37, N-(6-(5-Aminopyridin-3-yl)isoquinolin-3-yl)-4-(piperidin-4-yloxy) benzamide], the EC50 in assay [1] is 109 nM; at recombinant GSK3β kinase (setting [6]), 4.62 µM; in assay [2], 81 nM; in assay [3] it was 662 nM; in assay [4] (setting [7]) it was 1 nM; in assay [5], greater than 10000 nM. The inhibition at 10 µM in assay [5] (read-out: percent inhibition at 10 μM (given for EC50 >10 μM), TGF-β1, αSMA, 10 μM) came to 39.5%.

Take `CN1CCN(c2cc(C(=O)Nc3cc4cc(-c5cncc(N)c5)ccc4cn3)ccn2)CC1` [Compound 38, N-(6-(5-Aminopyridin-3-yl)isoquinolin-3-yl)-2-(4-methylpiperazin-1-yl) isonicotinamide]: the EC50 in assay [1] was 75 nM; at recombinant GSK3β kinase, greater than 10 µM; in assay [2] it was 225 nM; in assay [3], 765 nM; in assay [4], 2 nM; in assay [5], 603 nM.

Turning to `CN1CCN(c2cc(C(=O)Nc3cc4cc(-c5ccc(N)nc5)ccc4cn3)ccn2)CC1` [Compound 39, N-(6-(6-Aminopyridin-3-yl)isoquinolin-3-yl)-2-(4-methylpiperazin-1-yl) isonicotinamide], the EC50 in assay [1] was 710 nM; on recombinant GSK3β kinase, greater than 10 µM; in assay [2] it was 2720 nM; in assay [3], 3390 nM; in assay [4] it was 12 nM; in assay [5], 2480 nM.

Regarding `CNc1ccc(-c2ccc3cnc(NC(=O)c4ccnc(N5CCN(C)CC5)c4)cc3c2)cn1` [Compound 40, N-(6-(6-(Methylamino)pyridin-3-yl)isoquinolin-3-yl)-2-(4-methylpiperazin-1-yl)isonicotinamide], the EC50 is 4120 nM in assay [1]; greater than 10 µM at recombinant GSK3β kinase; 3370 nM in assay [2]; greater than 10000 nM in assay [3]; 64 nM in assay [4]; 1470 nM in assay [5]. Moreover, in assay [3] (read-out: percent inhibition at 10 μM (given for EC50 >10 μM), LPS, IL-6, 10 μM), the inhibition at 10 µM is 3.7%.

As for `CC(C)Nc1cncc(-c2ccc3cnc(NC(=O)c4cccc(C5CCNCC5)c4)cc3c2)c1` [Compound 41, N-(6-(5-(Isopropylamino)pyridin-3-yl)isoquinolin-3-yl)-3-(piperidin-4-yl) benzamide], the EC50 in assay [1] was 573 nM; on recombinant GSK3β kinase (setting [6]), greater than 10 µM; in assay [2], 636 nM; in assay [3], 1110 nM; in assay [4] (setting [7]), 4 nM; in assay [5], 571 nM.

Consider `CC(C)Nc1cncc(-c2ccc3cnc(NC(=O)c4cccc(C5CCN(C)CC5)c4)cc3c2)c1` [Compound 42, N-(6-(5-(Isopropylamino)pyridin-3-yl)isoquinolin-3-yl)-3-(1-methylpiperidin-4-yl)benzamide], for which the EC50 in assay [1] was 403 nM; at recombinant GSK3β kinase (setting [6]) it was greater than 10 µM; in assay [2], 491 nM; in assay [3], 1100 nM; in assay [4] (setting [7]), 3 nM; in assay [5], 631 nM.

As for `CC(C)Nc1cncc(-c2ccc3cnc(NC(=O)c4ccnc(N5CCN(C)CC5)c4)cc3c2)c1` [Compound 43, N-(6-(5-(Isopropylamino)pyridin-3-yl)isoquinolin-3-yl)-2-(4-methylpiperazin-1-yl)isonicotinamide], the concentration for a half-maximal effect (EC50) in assay [1] was 275 nM; on recombinant GSK3β kinase (setting [6]), greater than 10 µM; in assay [2], 467 nM; in assay [3], 2060 nM; in assay [4] (setting [7]) it was 2 nM; in assay [5] it was 217 nM.

(Values after patent US10653688B2, “6-(6-membered heteroaryl and aryl)isoquinolin-3-yl carboxamides and preparation and use thereof” (Samumed, LLC, priority 2017, dated 2020).)
